Values quoted from earlier work in patent US6322816A, “Fast-acting analgesic” (priority 1997, dated 2001).
Where a name gives a salt, the structure may show the parent alone.

How the values were obtained:
[1] = in words, background
[2] = versus free acid; in words, background
[3] = in words, DE-C 36 39 038

CC(C)Cc1ccc(C(C)C(=O)O)cc1 (racemic) [ibuprofen, 2-(4-isobutylphenyl)propionic acid]
solubility [1]: low solubility

CC(C)Cc1ccc(C(C)C(=O)O)cc1 (racemic) [lysine salt]
maximum blood level Cmax compared with the free acid [2]: distinctly faster and higher maximum blood level Cmax

CC(C)Cc1ccc(C(C)C(=O)O)cc1 (racemic) [sodium ibuprofenate]
hygroscopicity [1]: hygroscopic

CC(C)Cc1ccc([C@H](C)C(=O)O)cc1 [S(+) isomer, S(+)-ibuprofen]
onset of action [3]: faster onset of action
